Experimental data as given in paper PMC9090415, “Discovery of small molecule inhibitors of Plasmodium falciparum apicoplast DNA polymerase” (Journal of Enzyme Inhibition and Medicinal Chemistry, 2022).

Target: P. falciparum apicoplast DNA polymerase (Pf-apPOL) (Plasmodium falciparum, UniProt Q8ILY1)
Assay: Fluorescence-based high-throughput DNA polymerase assay (molecular beacon), primary screen and dose-response
Type: biochemical
Protocol: The HT assay employs a molecular beacon, a stem-loop DNA template with a Cy3 dye and the Black Hole Quencher on the 3′ and 5′ ends of the DNA, respectively. Pf-apPOL concentration is based on a calculated absorptivity of ε280 = 56750 M^−1 cm^−1. Reactions were carried out at 25 °C, using Corning 3575 […] (well-volume, 20 µL). Assays testing for compound inhibition composed of reaction buffer (pH 7.9 in 50 mM potassium acetate, 20 mM Tris-acetate and 10 mM magnesium acetate), Pf-apPOL (20 nM), DNA substrate (20 nM), dNTPs (6 µM), and compound (10 µM in DMSO). The DNA and nucleotide substrates (dNTPs) were at concentrations of 20 nM and 6 µM, respectively, in the assay. Pf-apPOL was incubated in the reaction buffer with dNTPs and the compound of interest (10 µM, in the assay) at 25 °C for 10 min. The DNA substrate was then added and the reaction was allowed to proceed for 90 min at 25 °C.
Each assay plate contained 16 negative controls (no Pf-apPOL, DMSO present) and 16 positive controls (Pf-apPOL present, no DMSO). The fluorescence of each well was determined using a BioTek Synergy Neo fluorescence plate reader using excitation and emission wavelengths of 555 and 570 nm, respectively.
In the above, Min is the average of fluorescence emission of the negative controls (substrate only), Max the average fluorescence emission from the positive controls (enzyme + substrate), and Test the emission from the assays in the presence of compounds (enzyme + compound + substrates). […] […] The IC50 of each compound was determined using Equation (2): (2) IC50= Vmax/(1+ (I/IC50)^n)
In the above, n measures cooperativity, with n > 1 indicating synergistic binding of more than a single molecule of the compound.
To identify apPOL inhibitors we utilised our previously developed high-throughput DNA polymerase assay. The HT assay is based on a molecular beacon DNA template that forms a stem-loop with a Cy3 dye and the Black Hole Quencher on the 3′ and 5′ ends of the DNA, respectively. DNA polymerase activity extends an annealed primer through the stem region, displacing the fluorophore from the quencher, thereby increasing its fluorescence (Figure 1(A)). The assay accurately recapitulates the kinetic behaviour of apPOL, as measured through more conventional low-throughput gel-based assays. The Z′ factor for the assay described here was 0.9 across all plates (data not shown).
Figure 1. High-throughput screening. (A) The fluorescent-based DNA polymerase assay used to screen the compound libraries. The DNA template strand is a hairpin loop with a primer annealed to the loop. The 3’ end of the primer is 11 bases away from the 6 bp duplex. Strand displacement activity of the DNA polymerase separates the Cy3 dye from the Black hole quencher leading to an increase in fluorescent signal. (B) The high-throughput assay workflow. The DNA polymerase is incubated with […] compound for 10 min prior to addition of the hairpin substrate. The reaction is quenched at 3 different time points and the fluorescent signal is measured and % inhibition is determined using the provided equation.

[1] = supplemental file 2, sheet IC50 nontoxic compounds; Pf-apPOL

P. falciparum apicoplast DNA polymerase (Pf-apPOL), sequence (Q8ILY1 entry or part of it): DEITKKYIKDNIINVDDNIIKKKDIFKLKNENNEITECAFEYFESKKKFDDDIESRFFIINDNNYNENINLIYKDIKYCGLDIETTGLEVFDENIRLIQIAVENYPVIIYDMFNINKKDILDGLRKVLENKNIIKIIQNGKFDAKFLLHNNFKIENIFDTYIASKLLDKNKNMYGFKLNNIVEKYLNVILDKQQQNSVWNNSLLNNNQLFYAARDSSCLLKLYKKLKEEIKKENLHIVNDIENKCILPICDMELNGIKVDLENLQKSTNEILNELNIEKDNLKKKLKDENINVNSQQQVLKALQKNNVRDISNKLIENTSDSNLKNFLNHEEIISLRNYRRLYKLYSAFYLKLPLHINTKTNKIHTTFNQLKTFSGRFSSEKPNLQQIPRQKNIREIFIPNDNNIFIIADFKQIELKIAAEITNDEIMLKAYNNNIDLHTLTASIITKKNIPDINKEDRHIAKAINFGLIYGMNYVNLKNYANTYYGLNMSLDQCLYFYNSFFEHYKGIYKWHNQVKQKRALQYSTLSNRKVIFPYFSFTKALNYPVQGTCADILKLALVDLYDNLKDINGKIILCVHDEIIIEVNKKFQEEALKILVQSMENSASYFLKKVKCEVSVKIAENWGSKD

## Cc1ccc(CNC(=O)c2cnn3c(O)cc(CSc4ccc(Cl)cc4)nc23)cc1 [Molecule 99]
[1]
  IC50: 9.14 µM

## NC(=O)c1cc[n+](CC2=C(C(=O)[O-])N3C(=O)[C@@H](NC(=O)[C@@H](c4ccccc4)S(=O)(=O)[O-])[C@H]3SC2)cc1.[Na+] [Molecule 9, O=C([C@H](S(=O)(=O)[O-])c1ccccc1)N[C@@H]1C(=O)N2[C@@H]1SCC(=C2C(=O)[O-])C[n+]1ccc(cc1)C(=O)N.[Na+]]
'DNA Pol' of the 186 hits list (primary screen result); unit not given; 90 min, 10 µM
  DNA Pol: 104
DRC-1; 10'; concentration 2.5
  % inhibition Apo pol 10': 39.849%
DRC-1; 10'; concentration 5
  % inhibition Apo pol 10': 54.1804%
DRC-1; 10'; concentration 10
  % inhibition Apo pol 10': 77.8206%
DRC-1; 10'; concentration 20
  % inhibition Apo pol 10': 94.0018%
DRC-1; 10'; concentration 40
  % inhibition Apo pol 10': 97.9008%
DRC-1; 10'; concentration 80
  % inhibition Apo pol 10': 96.5672%
DRC-1; 90'; concentration 2.5
  % inhibition Apol 90': 3.442%
DRC-1; 90'; concentration 5
  % inhibition Apol 90': 17.2714%
DRC-1; 90'; concentration 10
  % inhibition Apol 90': 53.7945%
DRC-1; 90'; concentration 20
  % inhibition Apol 90': 88.3864%
DRC-1; 90'; concentration 40
  % inhibition Apol 90': 97.5%
DRC-1; 90'; concentration 80
  % inhibition Apol 90': 97.5161%
DRC-1; 180'; concentration 2.5
  % inhibition apPOL 180': -2.063%
DRC-1; 180'; concentration 5
  % inhibition apPOL 180': 5.595%
DRC-1; 180'; concentration 10
  % inhibition apPOL 180': 40.8592%
DRC-1; 180'; concentration 20
  % inhibition apPOL 180': 84.7929%
DRC-1; 180'; concentration 40
  % inhibition apPOL 180': 96.7618%
DRC-1; 180'; concentration 80
  % inhibition apPOL 180': 97.7754%
DRC-2, 5', concentration 20 (unit not given)
  % inhibition Apo pol 5': 56%
DRC-2, 40', concentration 40 (unit not given)
  % inhibition Apol 40': 76%
DRC-2, 40', concentration 80 (unit not given)
  % inhibition Apol 40': 76%
DRC-2, 180', concentration 40 (unit not given)
  % inhibition apPOL 180': 83%
DRC-2, 180', concentration 80 (unit not given)
  % inhibition apPOL 180': 83%
DRC-2; 5'; concentration 2.5
  % inhibition Apo pol 5': 21%
DRC-2; 5'; concentration 5
  % inhibition Apo pol 5': 28%
DRC-2; 5'; concentration 10
  % inhibition Apo pol 5': 47%
DRC-2; 5'; concentration 20
  % inhibition Apo pol 5': 56%
DRC-2; 5'; concentration 40
  % inhibition Apo pol 5': 58%
DRC-2; 5'; concentration 80
  % inhibition Apo pol 5': 56%
DRC-2; 5'; concentration 80 (unit not given)
  % inhibition Apo pol 5': 56%
DRC-2; 40'; concentration 2.5
  % inhibition Apol 40': -0.192%
DRC-2; 40'; concentration 5
  % inhibition Apol 40': 15%
DRC-2; 40'; concentration 10
  % inhibition Apol 40': 49%
DRC-2; 40'; concentration 20
  % inhibition Apol 40': 71%
DRC-2; 40'; concentration 40
  % inhibition Apol 40': 76%
DRC-2; 40'; concentration 80
  % inhibition Apol 40': 76%
DRC-2; 90'; concentration 2.5
  % inhibition ApPOL 90': -4%
DRC-2; 90'; concentration 5
  % inhibition ApPOL 90': 8%
DRC-2; 90'; concentration 10
  % inhibition ApPOL 90': 46%
DRC-2; 90'; concentration 20
  % inhibition ApPOL 90': 74%
DRC-2; 90'; concentration 40
  % inhibition ApPOL 90': 81%
DRC-2; 90'; concentration 80
  % inhibition ApPOL 90': 80%
DRC-2; 180'; concentration 2.5
  % inhibition apPOL 180': 1.56%
DRC-2; 180'; concentration 5
  % inhibition apPOL 180': 9%
DRC-2; 180'; concentration 10
  % inhibition apPOL 180': 41%
DRC-2; 180'; concentration 20
  % inhibition apPOL 180': 75%
DRC-2; 180'; concentration 40
  % inhibition apPOL 180': 83%
DRC-2; 180'; concentration 80
  % inhibition apPOL 180': 83%
Primary screen value of the library well; unit not given; 90 min, 10 µM
  DNA Pol: 104

## CCOC(=O)C(NCc1ccco1)(NC(=O)c1ccco1)C(F)(F)F (centres unmarked) [KU0276119]
186 hits, value of the hit list (primary screen); unit not given; 90 min, 10 µM
  DNA Pol: 69
DRC-1; 10'; concentration 2.5
  % inhibition Apo pol 10': -0.8683%
DRC-1; 10'; concentration 5
  % inhibition Apo pol 10': 4.257%
DRC-1; 10'; concentration 10
  % inhibition Apo pol 10': 15.6994%
DRC-1; 10'; concentration 20
  % inhibition Apo pol 10': 30.4809%
DRC-1; 10'; concentration 40
  % inhibition Apo pol 10': 51.156%
DRC-1; 10'; concentration 80
  % inhibition Apo pol 10': 69.3233%
DRC-1; 90'; concentration 2.5
  % inhibition Apol 90': -1.328%
DRC-1; 90'; concentration 5
  % inhibition Apol 90': -2.247%
DRC-1; 90'; concentration 10
  % inhibition Apol 90': 3.449%
DRC-1; 90'; concentration 20
  % inhibition Apol 90': 14.6625%
DRC-1; 90'; concentration 40
  % inhibition Apol 90': 31.3437%
DRC-1; 90'; concentration 80
  % inhibition Apol 90': 52.4823%
DRC-1; 180'; concentration 2.5
  % inhibition apPOL 180': -2.149%
DRC-1; 180'; concentration 5
  % inhibition apPOL 180': -6.365%
DRC-1; 180'; concentration 10
  % inhibition apPOL 180': -5.1582%
DRC-1; 180'; concentration 20
  % inhibition apPOL 180': 2.395%
DRC-1; 180'; concentration 40
  % inhibition apPOL 180': 15.7005%
DRC-1; 180'; concentration 80
  % inhibition apPOL 180': 35.8359%
DRC-2, 5', concentration 2.5
  % inhibition Apo pol 5': 3%
DRC-2, 5', concentration 5
  % inhibition Apo pol 5': 8.49%
DRC-2, 5', concentration 10
  % inhibition Apo pol 5': 20%
DRC-2, 5', concentration 20
  % inhibition Apo pol 5': 31%
DRC-2, 5', concentration 40
  % inhibition Apo pol 5': 44%
DRC-2, 5', concentration 80
  % inhibition Apo pol 5': 52%
DRC-2, 40', concentration 2.5
  % inhibition Apol 40': 3%
DRC-2, 40', concentration 5
  % inhibition Apol 40': 5%
DRC-2, 40', concentration 10
  % inhibition Apol 40': 12%
DRC-2, 40', concentration 20
  % inhibition Apol 40': 24%
DRC-2, 40', concentration 40
  % inhibition Apol 40': 41%
DRC-2, 40', concentration 80
  % inhibition Apol 40': 57%
DRC-2, 90', concentration 2.5
  % inhibition ApPOL 90': 1.27%
DRC-2, 90', concentration 5
  % inhibition ApPOL 90': 0%
DRC-2, 90', concentration 10
  % inhibition ApPOL 90': 7%
DRC-2, 90', concentration 20
  % inhibition ApPOL 90': 17%
DRC-2, 90', concentration 40
  % inhibition ApPOL 90': 36%
DRC-2, 90', concentration 80
  % inhibition ApPOL 90': 54%
DRC-2, 180', concentration 2.5
  % inhibition apPOL 180': -2.49%
DRC-2, 180', concentration 5
  % inhibition apPOL 180': -7%
DRC-2, 180', concentration 10
  % inhibition apPOL 180': -2%
DRC-2, 180', concentration 20
  % inhibition apPOL 180': 2.7%
DRC-2, 180', concentration 40
  % inhibition apPOL 180': 21%
DRC-2, 180', concentration 80
  % inhibition apPOL 180': 45%
DRC-2; 5'; concentration 2.5
  % inhibition Apo pol 5': 3%
DRC-2; 40'; concentration 2.5
  % inhibition Apol 40': 3%
Primary screen value, 'DNA Pol' only; 90 min, 10 µM
  DNA Pol: 69

## O=C(O)c1nc(-c2ccccc2)nc2c1OCO2 [Molecule 45]
[1]
  IC50: 11.2 µM
